In patent publication US20260364184A1, “COMPOUND BASED ON OXOISOINDOLINYL-SUBSTITUTED TETRAHYDROPYRIMIDINE-DIONE AND USE THEREOF” (GLUETACS THERAPEUTICS (SHANGHAI) CO., LTD., priority 2023, published 2026):

Assays:
Format in all cases: cell-based
[1] = test system: Human Multiple myeloma cell line (MM.1S); assay: Inhibition of MM.1S cell proliferation (CellTiter luminescent viability); conditions: Homo sapiens, MM1.S, Table IA5, IRAK4 inhibitor-based, 96 hours; for inhibition at 0.01 µM: 10 nM, read-out: Inhibition Rate at 10 nM (%); for inhibition at 0.5 µM: 500 nM, read-out: Inhibition Rate at 500 nM (%)
How it was run: (§1)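 IC50 is fitted from luminescent viability (CellTiter-Meiluncell) curves. Nine-point, 5-fold dilution series (top stock 2000 μM) are added at 0.5 μL per 100 μL medium to cells plated the day before, with growth at 37 °C and 5% CO2.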

[2] = Inhibition of RPMI-8226 cell proliferation (CellTiter luminescent viability); conditions: Homo sapiens; Table IA4, IRAK4 inhibitor-based; RPMI-8226, 10 nM, 96 hours; read-out: Inhibition Rate at 10 nM (%)
Procedure: (§2) The tumor cells used herein were cultured in a cell culture medium listed in table 3 at 37 °C in an incubator with 5% CO2. Prior to experimentation, all cell lines used were correctly identified by STR profiling, and tested negative for mycoplasma contamination using a mycoplasma detection kit through routine screenings.
(§3) The IC50 values of the compounds of the present disclosure (including the compounds in Table 1, Table 2, and Examples 1-468) were determined using the CellTiter-Meiluncell Luminescent Cell Viability Assay Kit from Dalian Meilun Biotech Co., Ltd. The detailed procedure is as follows: Tumor cells were seeded in 96-well cell culture plates at the densities specified in Table 4. On the following day, the test compounds of the present disclosure were subjected to serial dilution. The dilution can be performed according to one of the following two methods: • (1) The first dilution method: The test compounds of the present disclosure (including the compounds in Table 1, Table 2, and Examples 1-468) were subjected to 5-fold serial dilutions starting from a highest concentration of 2000 μM, resulting in a total of 9 concentrations from high to low (2000, 400, 80, 16, 3.2, 0.64, 0.128, 0.0256, 0.00512 μM). Subsequently, 0.5 μL of the test compound dilution was transferred into the 96-well plate containing the cells, with each well containing 100 μL of cell culture medium. […] Into the 96-well plate, the diluted test compounds and corresponding detection reagents were added, resulting in final test compound concentrations of 500 nM and 10 nM, respectively. The experimental procedure is described below using the diluted 2 μM test compound as an example.
(§4) 0.5 μL of the aforementioned diluted compound of the present disclosure (including the compounds in Table 1, Table 2, and Examples 1-468) was added to the seeded cells in 100 μL of medium, yielding a final test compound concentration of 10 nM. After the cells were treated with the compounds of the present disclosure for a specified period, the cell viability assay reagent was added to the culture medium according to the kit's instructions to determine cell viability. […] All controls were treated using the same procedure as the compounds of the present disclosure. The growth inhibition curves for the compounds of the present disclosure were plotted using Prism GraphPad software, and the IC50 values were calculated therefrom.

[3] = test system: Human B-Cell Lymphoma Cells (RPMI-8226); assay: as above; conditions: Table IA4, IRAK4 inhibitor-based, RPMI-8226, 500 nM, 96 hours, read-out: Inhibition Rate at 500 nM (%)
Procedure: as §2, §3, §4

[4] = test system: Human myeloid monocytic leukemia cell line (MV-4-11); assay: Inhibition of MV-4-11 cell proliferation (CellTiter luminescent viability); conditions: Homo sapiens, MV4-11, Table IA3, IRAK4 inhibitor-based, 96 hours; for inhibition at 0.01 µM: MV-4-11, 10 nM, read-out: Inhibition Rate at 10 nM (%); for inhibition at 0.5 µM: MV-4-11, 500 nM, read-out: Inhibition Rate at 500 nM (%)
How it was run: as §1

[5] = target: T1, IRAK4 (Homo sapiens, UniProt Q9NWZ3); assay: Western blot degradation of IRAK4; conditions: hPBMC Cell; 24 hours
T1 construct: expression of target proteins in cells; endogenous in cells
T1 sequence (Q9NWZ3 1-460): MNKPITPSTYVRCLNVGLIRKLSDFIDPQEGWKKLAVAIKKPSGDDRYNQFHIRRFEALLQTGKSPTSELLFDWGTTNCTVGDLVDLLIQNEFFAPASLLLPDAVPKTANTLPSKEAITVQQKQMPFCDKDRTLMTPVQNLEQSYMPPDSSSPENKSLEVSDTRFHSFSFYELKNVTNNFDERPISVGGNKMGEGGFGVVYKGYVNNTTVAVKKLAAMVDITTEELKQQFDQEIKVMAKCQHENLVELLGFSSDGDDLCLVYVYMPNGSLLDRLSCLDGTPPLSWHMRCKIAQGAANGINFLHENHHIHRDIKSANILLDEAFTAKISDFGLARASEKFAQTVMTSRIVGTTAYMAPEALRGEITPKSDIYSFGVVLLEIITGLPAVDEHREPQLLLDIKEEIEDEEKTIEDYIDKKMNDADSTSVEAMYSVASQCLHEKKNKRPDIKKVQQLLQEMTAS
How it was run: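 Cells treated with compound, lysed, and target protein detected by Western blot (SDS-PAGE, nitrocellulose transfer). DC50 taken as the concentration giving band grayscale half that of DMSO control, estimated by concentration-response fitting; remaining protein (%) from target band normalised to internal control band; degradation (%) = 1 − remaining.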

SMILES: O=C1CCN(N2C(=O)c3ccc(CN4CCC(n5cc(NC(=O)c6coc(-c7ccnc(NCC(F)(F)F)c7)n6)c(C(F)F)n5)CC4)cc3C2=O)C(=O)N1 [GT-05188, N-(3-(difluoromethyl)-1-(1-((2-(2,4-dioxotetrahydropyrimidin-1(2H)-yl)-1,3-dioxoisoindolin-5-yl)methyl)piperidin-4-yl)-1H-pyrazol-4-yl)-2-(2-((2,2,2-trifluoroethyl)amino)pyridin-4-yl) oxazole-4-carboxamide]
- inhibition at 0.01 µM [1]: 10 to 15%
- inhibition at 0.5 µM [1]: 30 to 40%
- inhibition at 0.01 µM [2]: 30 to 40%
- inhibition at 0.5 µM [3]: 40 to 60%
- inhibition at 0.01 µM [4]: 36 to 45%
- inhibition at 0.5 µM [4]: 80 to 100%
- Degradation of substrate protein IRAK4 (substrate protein remaining %) [5]: A (0%≤substrate protein remaining %≤80%)

SMILES: O=C1CCN(N2C(=O)c3ccc(N4CCC(CN5CCC(n6cc(NC(=O)c7cnn8ccc(N9CCOCC9)nc78)c(C(F)F)n6)CC5)CC4)cc3C2=O)C(=O)N1 [GT-05291, N-(3-(difluoromethyl)-1-(1-((1-(2-(2,4-dioxotetrahydropyrimidin-1(2H)-yl)-1,3-dioxoisoindolin-5-yl)piperidin-4-yl)methyl)piperidin-4-yl)-1H-pyrazol-4-yl)-5-morpholinopyrazolo[1,5-a]pyrimidine-3-carboxamide]
- inhibition at 0.01 µM [1]: 10 to 15%
- inhibition at 0.5 µM [1]: 20 to 25%
- inhibition at 0.01 µM [2]: 25 to 30%
- inhibition at 0.5 µM [3]: 25 to 30%
- inhibition at 0.01 µM [4]: 50 to 60%
- inhibition at 0.5 µM [4]: 60 to 80%
- Degradation of substrate protein IRAK4 (substrate protein remaining %) [5]: A (0%≤substrate protein remaining %≤80%)

SMILES: CC(C)Nc1cc(-n2ccc3cc(C#N)cnc32)ncc1C(=O)NC1CCN(Cc2ccc3c(c2)CN(N2CCC(=O)NC2=O)C3=O)CC1 [GT-05319, 6-(5-cyano-1H-pyrrolo[2,3-b]pyridin-1-yl)-N-(1-((2-(2,4-dioxotetrahydropyrimidin-1(2H)-yl)-1-oxoisoindolin-5-yl)methyl)piperidin-4-yl)-4-((isopropyl)amino) nicotinamide]
- inhibition at 0.01 µM [1]: 30 to 40%
- inhibition at 0.5 µM [1]: 30 to 40%
- inhibition at 0.01 µM [2]: 30 to 40%
- inhibition at 0.5 µM [3]: 40 to 60%
- Degradation of substrate protein IRAK4 (substrate protein remaining %) [5]: A (0%≤substrate protein remaining %≤80%)

SMILES: Cc1cc(-c2nc(C(=O)Nc3cc4oc(N5CCN(CC6CCN(c7cccc8c7C(=O)N(N7CCC(=O)NC7=O)C8=O)CC6)CC5)nc4nc3N3CC[C@@H](O)C3)co2)ccn1 [GT-05806, (R)—N-(2-(4-((1-(2-(2,4-dioxotetrahydropyrimidin-1(2H)-yl)-1,3-dioxoisoindolin-4-yl)piperidin-4-yl)methyl)piperazin-1-yl)-5-(3-hydroxypyrrolidin-1-yl)oxazolo[4,5-b]pyridin-6-yl)-2-(2-methylpyridin-4-yl) oxazole-4-carboxamide]
- inhibition at 0.01 µM [2]: 20 to 25%
- inhibition at 0.5 µM [3]: 25 to 30%
- inhibition at 0.01 µM [4]: 45 to 50%
- inhibition at 0.5 µM [4]: 80 to 100%
- Degradation of substrate protein IRAK4 (substrate protein remaining %) [5]: A (0%≤substrate protein remaining %≤80%)

SMILES: O=C1CCN(N2C(=O)c3ccc(N4CCC(N5CCC(CN6CCC(n7cc(NC(=O)c8cnn9ccc(N%10C[C@H]%11C[C@@H]%10CO%11)nc89)c(C(F)F)n7)CC6)CC5)CC4)cc3C2=O)C(=O)N1 [GT-05816, 5-((1R,4R)-2-oxa-5-azabicyclo[2.2.1]heptan-5-yl)-N-(3-(difluoromethyl)-1-(1-((1′-(2-(2,4-dioxotetrahydropyrimidin-1(2H)-yl)-1,3-dioxoisoindolin-5-yl)-[1,4′-bipiperidin]-4-yl)methyl)piperidin-4-yl)-1H-pyrazol-4-yl)pyrazolo[1,5-a]pyrimidine-3-carboxamide]
- inhibition at 0.01 µM [2]: 30 to 40%
- inhibition at 0.5 µM [3]: 15 to 20%
- inhibition at 0.01 µM [4]: -10 to -5%
- inhibition at 0.5 µM [4]: 50 to 60%
- Degradation of substrate protein IRAK4 (substrate protein remaining %) [5]: A (0%≤substrate protein remaining %≤80%)

SMILES: CC(C)(O)c1cc2nc(C3CCN(CC4CCN(c5cccc6c5C(=O)N(N5CCC(=O)NC5=O)C6=O)CC4)CC3)sc2cc1NC(=O)c1cccc(C(F)(F)F)n1 [GT-05818, N-(2-(1-((1-(2-(2,4-dioxotetrahydropyrimidin-1(2H)-yl)-1,3-dioxoisoindolin-4-yl)piperidin-4-yl)methyl)piperidin-4-yl)-5-(2-hydroxypropan-2-yl)benzo[d]thiazol-6-yl)-6-(trifluoromethyl) picolinamide]
- inhibition at 0.01 µM [2]: 20 to 25%
- inhibition at 0.5 µM [3]: 10 to 15%
- inhibition at 0.01 µM [4]: 10 to 20%
- inhibition at 0.5 µM [4]: 50 to 60%
- Degradation of substrate protein IRAK4 (substrate protein remaining %) [5]: A (0%≤substrate protein remaining %≤80%)

SMILES: O=C1CCN(N2C(=O)c3ccc(N4CC5CCC(C4)N5C[C@H]4CC[C@H](n5cc(NC(=O)c6cnn7ccc(N8C[C@H]9C[C@@H]8CO9)nc67)c(C(F)F)n5)CC4)cc3C2=O)C(=O)N1 [GT-05825, 5-((1R,4R)-2-oxa-5-azabicyclo[2.2.1]heptan-5-yl)-N-(3-(difluoromethyl)-1-((1r,4R)-4-((3-(2-(2,4-dioxotetrahydropyrimidin-1(2H)-yl)-1,3-dioxoisoindolin-5-yl)-3,8-diazabicyclo[3.2.1]octan-8-yl)methyl)cyclohexyl)-1H-pyrazol-4-yl)pyrazolo[1,5-a]pyrimidine-3-carboxamide]
- inhibition at 0.01 µM [2]: 15 to 20%
- inhibition at 0.5 µM [3]: 25 to 30%
- Degradation of substrate protein IRAK4 (substrate protein remaining %) [5]: A (0%≤substrate protein remaining %≤80%)

SMILES: COc1cc2nn([C@H]3CC[C@H](CN4C5CC4CN(c4ccc6c(c4)C(=O)N(N4CCC(=O)NC4=O)C6=O)C5)CC3)cc2cc1NC(=O)c1cccc(C(F)(F)F)n1 [GT-08653, N-(2-((1r,4r)-4-((3-(2-(2,4-dioxotetrahydropyrimidin-1(2H)-yl)-1,3-dioxoisoindolin-5-yl)-3,6-diazabicyclo[3.1.1]heptan-6-yl)methyl)cyclohexyl)-6-methoxy-2H-indazol-5-yl)-6-(trifluoromethyl) picolinamide]
- inhibition at 0.01 µM [2]: 15 to 20%
- inhibition at 0.5 µM [3]: 25 to 30%
- Degradation of substrate protein IRAK4 (substrate protein remaining %) [5]: A (0%≤substrate protein remaining %≤80%)

SMILES: COc1cc2nn([C@H]3CC[C@H](CN4CCN(c5cccc6c5C(=O)N(N5CCC(=O)NC5=O)C6=O)CC4)CC3)cc2cc1NC(=O)c1cccc(C(F)(F)F)c1 [GT-08668, N-(2-((1r,4r)-4-((4-(2-(2,4-dioxotetrahydropyrimidin-1(2H)-yl)-1,3-dioxoisoindolin-4-yl)piperazin-1-yl)methyl)cyclohexyl)-6-methoxy-2H-indazol-5-yl)-3-(trifluoromethyl)benzamide]
- inhibition at 0.01 µM [2]: 20 to 25%
- inhibition at 0.5 µM [3]: 30 to 40%
- Degradation of substrate protein IRAK4 (substrate protein remaining %) [5]: A (0%≤substrate protein remaining %≤80%)
